Results on 14 compounds are retold here after patent publication US9216973B2, “Insecticidal compounds” (Syngenta Participations AG, priority 2008, dated 2015).

Like-named read-outs stand apart in the source and are kept apart here. Where only a bound is given, the exact number is not on record here.

The subject of data set [1] is Plutella xylostella (Diamond back moth). As to the kind of experiment: Plutella xylostella larvae test on artificial diet. It is filed as in vivo. The following applies: 144 h, 200 ppm (concentration in well 18 ppm), artificial diet, L2 larvae, larval mortality and growth regulation after 6 days. The method, then:
(§1) This Example illustrates the insecticidal and acaricidal properties of compounds of formula (I). The tests were performed as follows:
(§2) Cotton leaf discs were placed on agar in a 24-well microtiter plate and sprayed with test solutions at an application rate of 200 ppm. After drying, the leaf discs were infested with 5 L1 larvae. The samples were checked for mortality, feeding behavior, and growth regulation 3 days after treatment (DAT). The following compound gave at least 80% control of Spodoptera littoralis: A1, A2, A5, A6, A7, A8, A10, A11, A12, A13, A14, A15, A16, A17, A18, A19, A21, A22, A23, A24, A25, A30, A31, A32, A33, A34, A35, A39, A40, A41 A42, A43, A44, A45, A46, A47, A48, A49, A50, A51, A53, A54, A55, A59, A60, A61, A62. Heliothis virescens (Tobacco budworm): Eggs (0-24 h old) were placed in 24-well microtiter plate on artificial diet and treated with test solutions at an application rate of 200 ppm (concentration in well 18 ppm) by pipetting. After an incubation period of 4 days, samples were checked for egg mortality, larval mortality, and growth regulation. The following compound gave at least 80% control of Heliothis virescens: A1, A2, A3, A4, A5, A6, A7, A8, A10, A11, A12, A13, A14, A15, A16, A18, A19, A21, A22, A24, A25, A30, A31, A32, A33, A34, A35, A37, A38, A39, A40, A42, A43, A44, A45, A46, A47, A48, A49, A50, A51, A55, AA57, A58, A59, A60, A61, A62. Plutella xylostella (Diamond back moth): 24-well microtiter plate (MTP) with artificial diet was treated with test solutions at an application rate of 200 ppm (concentration in well 18 ppm) by pipetting. After drying, the MTP's were infested with L2 larvae (7-12 per well). After an incubation period of 6 days, samples were checked for larval mortality and growth regulation. The following compound gave at least 80% control of Plutella xylostella: A1, A2, A5, A6, A7, A8, A9, A10, A11, A12, A13, A14, A15, A16, A17, A18, A19, A20, A21, A22, A24, A25, A30, A31, A32, A33, A34, A35, A37, A38, A39, A40, A42, A43, A44, A45, A46, A47, A48, A49, A50, A51, A52, A53, A54, A55, A57, A58, A59, A60, A61, A62, B3. Diabrotica balteata (Corn root worm): A 24-well microtiter plate (MTP) with artificial diet was treated with test solutions at an application rate of 200 ppm (concentration in well 18 ppm) by pipetting. After drying, the MTP's were infested with L2 larvae (6-10 per well). After an incubation period of 5 days, samples were checked for larval mortality and growth regulation. The following compound gave at least 80% control of Diabrotica balteata: A1, A2, A5, A6, A7, A10, A11, A12, A13, A14, A15, A16, A17, A18, A19, A21, A22, A24, A25, A30, A31, A32, A33, A34, A35, A38, A39, A40, A42, A43, A44, A45, A46, A47, A48, A49, A50, A59, A60, A61, A62. Thrips tabaci (Onion thrips): Sunflower leaf discs were placed on agar in a 24-well microtiter plate and sprayed with test solutions at an application rate of 200 ppm. After drying, the leaf discs were infested with an […] population of mixed ages. After an incubation period of 7 days, samples were checked for mortality. The following compounds gave at least 80% control of Thrips tabaci: A1, A2, A5, A6, A7, A8, A10, A12, A13, A14, A15, A16, A17, A18, A19, A21, A24, A25, A30, A31, A32, A33, A34, A35, A39, A42, A43, A44, A45, A46, A47, A48, A49, A50, A51, A53, A54, A57, A58, A59, A60, A61, A62. Tetranychus urticae (Two-spotted spider mite): Bean leaf discs on agar in 24-well microtiter plates were sprayed with test solutions at an application rate of 200 ppm. After drying, the leaf discs are infested with mite populations of mixed ages. 8 days later, discs are checked for egg mortality, larval mortality, and adult mortality. The following compound gave at least 80% control of Tetranychus urticae: A1, A2, A4, A5, A6, A7, A8, A10, A11, A12, A13, A14, A15, A16, A17, A18, A19, A20, A21, A22, A30, A31, A32, A33, A34, A35, A39, A40, A41, A42, A43, A44, A45, A46, A47, A48, A49, A50, A51, A53, A54, A55, A57, A59, A60, A61, A62.

Data set [2] relates to Diabrotica balteata (Corn root worm). As to the kind of experiment: Diabrotica balteata larvae test on artificial diet. It counts as in vivo. As to conditions: 120 h, 200 ppm (concentration in well 18 ppm), artificial diet, L2 larvae, larval mortality and growth regulation after 5 days. The method, then: as §1, §2
In data set [3] the test system is Heliothis virescens (Tobacco budworm). The experiment in a line: Heliothis virescens egg test on artificial diet. It counts as in vivo. As to conditions: 96 h, read-out: control of Heliothis virescens. The method, then:
as §1, §2

Data set [4] deals with Tetranychus urticae (Two-spotted spider mite). The experiment in a line: Tetranychus urticae bean leaf disc spray test. It counts as in vivo. The following applies: foliar, 192 h, read-out: control of Tetranychus urticae. The method, then: as §1, §2
Data set [5] relates to Spodoptera littoralis (Egyptian cotton leafworm). The experiment in a line: Spodoptera littoralis cotton leaf disc spray test. It counts as in vivo. As to conditions: foliar, 72 h, 200 ppm spray on cotton leaf discs, L1 larvae, mortality, feeding behavior, growth regulation 3 days after treatment. As to the method: as §1
Spodoptera littoralis (Egyptian cotton leafworm):
as §2, with “The following compound gave at least 80% control of Tetranychus urticae: A1, A2, A4, A5, A6, A7, A8, A10, A11, A12, A13, A14, A15, A16, A17, A18, A19, A20, A21, A22, A30, A31, A32, A33, A34, A35, A39, A40, A41, A42, A43, A44, A45, A46, A47, A48, A49, A50, A51, A53, A54, A55, A57, A59, A60, A61, A62.” left out

The subject of data set [6] is Thrips tabaci (Onion thrips). The experiment in a line: Thrips tabaci sunflower leaf disc spray test. It counts as in vivo. As to conditions: foliar, 168 h, 200 ppm spray on sunflower leaf discs, population of mixed ages, mortality after 7 days. As to the method: as §1, §2
Setting [7] is: 200 ppm (concentration in well 18 ppm), eggs 0-24 h old on artificial diet, egg mortality, larval mortality, growth regulation after 4 days.
[8] abbreviates: 200 ppm spray on bean leaf discs, mite populations of mixed ages, egg, larval and adult mortality 8 days later.

For `O=C(NC1CSC1)c1cccc2c(C3=NOC(c4cc(Cl)cc(Cl)c4)(C(F)(F)F)C3)cccc12` (stereo not drawn) [A38], the pest or weed control at 200 ppm in data set [1], in data set [2] and in data set [3] (setting [7]) was at least 80% in each case.
For `Cc1cc(N2CC(c3cc(Cl)cc(Cl)c3)(C(F)(F)F)OC2=O)ccc1C(=O)NC1(C)CSC1` (stereo not drawn) [A9], the pest or weed control at 200 ppm in data set [1] was at least 80%.
As for `C/C=C1\C(c2ccc(C(=O)NC3CSC3)c(C)c2)=NOC1(c1cc(Cl)cc(Cl)c1)C(F)(F)F` (stereo not drawn) [A30], the pest or weed control at 200 ppm in data set [1], in data set [2] and in data set [3] (setting [7]) was at least 80% throughout.
In data set [1], `O=C(NC1CSC1)c1ccn(C2=NOC(c3cc(Cl)cc(Cl)c3)(C(F)(F)F)C2)n1` (stereo not drawn) [B3] came in with a pest or weed control at 200 ppm of at least 80%.
As to `Cc1cc(C2CC(c3cc(Cl)cc(Cl)c3)(C(F)(F)F)ON2C)ccc1C(=O)NC1(C)CSC1` (stereo not drawn) [A20], the pest or weed control at 200 ppm in data set [4] (setting [8]) and in data set [1] was at least 80% in each case.
Take `Cc1cc(C2=NOC(c3cc(Cl)cc(Cl)c3)(C(F)(F)F)C2S(C)(=O)=O)ccc1C(=O)NC1CSC1` (stereo not drawn) [A41]: in data set [5], the pest or weed control at 200 ppm was at least 80%.
On to `Cc1cc(N2CC2(c2cc(Cl)cc(Cl)c2)C(F)(F)F)ccc1C(=O)NC1CSC1` (stereo not drawn) [A4], for which the pest or weed control at 200 ppm in data set [4] and in data set [3] was at least 80% throughout.
Turning to `Cc1cc(C2=NOC(c3cc(Cl)cc(Cl)c3)(C(F)(F)F)/C2=N/O)ccc1C(=O)NC1C[S+]([O-])C1` (stereo not drawn) [A57], the pest or weed control at 200 ppm in data set [4] (setting [8]), in data set [6], in data set [1] and in data set [3] (setting [7]) was at least 80% in each case.
As to `Cc1cc(C2=NOC(c3cc(Cl)cc(Cl)c3)(C(F)(F)F)C2O)ccc1C(=O)NC1(C)CSC1` (stereo not drawn) [A52], in data set [1], the pest or weed control at 200 ppm was at least 80%.
Consider `O=C(NC1CSC1)c1cnn(C2=NOC(c3cc(Cl)cc(Cl)c3)(C(F)(F)F)C2)c1` (stereo not drawn) [B4], for which the melting point fell in the range of 85 to 87 °C.
With `O=C(NC1CSC1)c1ccc(C2=NOC(c3cc(Cl)cc(Cl)c3)(C(F)(F)F)C2)c2nsnc12` (stereo not drawn) [A25], the pest or weed control at 200 ppm in data set [1] was at least 80%.
For the compound `O=C(NC1C[S+]([O-])C1)c1cccc2c(C3=NOC(c4cc(Cl)cc(Cl)c4)(C(F)(F)F)C3)cccc12` (stereo not drawn) [A37], the pest or weed control at 200 ppm in data set [1] and in data set [3] (setting [7]) was at least 80% each time.
In data set [1], `O=C(NC1C[S+]([O-])C1)c1ccc(C2=NOC(c3cc(Cl)cc(Cl)c3)(C(F)(F)F)C2)c2nsnc12` (stereo not drawn) [A24] had a pest or weed control at 200 ppm of at least 80%.
As for `Cc1cc(N2CC2(c2cc(Cl)cc(Cl)c2)C(F)(F)F)ccc1C(=O)NC1(C)CSC1` (stereo not drawn) [A3], in data set [3], the pest or weed control at 200 ppm is at least 80%.
